Results published in patent publication US3959363A, “15-Ethynyl-PFG2β” (American Home Products Corporation, priority 1974, dated 1976).

Tests used:
[1] = Hypotensive effect in the anesthetized dog, intravenous route; format: in vivo; details: dose 100 μg/kg
Description: In the use of the compounds of the invention to produce hypotensive effects in warm-blooded animals, administration by the injectable route is preferred, preferably the intravenous route.
Thus in the anesthetized dog by the intravenous route the dose to produce hypotension is from about 1 μg/kg. to about 200 μg/kg. and preferably from about 10 μg/kg. to about 100 μg/kg. Using this procedure the following results were obtained.

[2] = system: bronchoconstricting effects of a standard dose of acetylcholine; test: Bronchodilation upon aerosol inhalation in the guinea pig (method of Rosenthale et al.): inhibition of acetylcholine bronchoconstriction; format: in vivo
Source text: In using the compounds of the invention to produce bronchodilating effects in warm-blooded animals, they may be administered in a variety of dosage forms: oral, injectable, and aerosol inhalation. Aerosol inhalation is a preferred method because of its rapid onset of action, great potency, and specificity of action. The particular dosage to obtain the bronchodilating effect will vary with the particular compound employed, the particular animal involved, and the degree of bronchodilation desired. In the guinea pig, by aerosol inhalation, the dose to produce bronchodilation is from about 0.015 micrograms to about 50 micrograms, and preferably from about 0.015 to about 25 micrograms. The bronchodilation produced upon aerosol inhalation can be observed by the method of Rosenthale et al., J. Pharmacol. Exp. Ther., 178, 541 (1971). Using this procedure the following result was obtained.

C#C[C@@](O)(/C=C/[C@@H]1[C@@H](C/C=C\CCCC(=O)O)[C@H](O)C[C@H]1O)CCCCC [7-(2β-[(3S)-3-Ethynyl-3-Hydroxy-Trans-1-Octenyl]-3α,5β-Dihydroxy-1α-cyclopentyl)-Cis-5-Heptenoic Acid]
Δb.p. [1]: -16 mm. Hg
Percent Inhibition of the bronchoconstricting effects of a standard dose of acetylcholine ([2]; dose 1.5 μg): 64%
Percent Inhibition of the bronchoconstricting effects of a standard dose of acetylcholine ([2]; dose 15 μg): 78%
